Assay [1] concerns U-87 MG human glioblastoma. Nature of the assay: U87 MG CCK-8 proliferation assay. It counts as cell-based. The note with it: Homo sapiens, U-87 MG, 72 h, U-87 MG cells, read-out: U87MG CCK-8. An outline of the steps: (§1)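 CCK-8 absorbance read-out, with inhibition expressed against DMSO-treated cells after subtracting a cell-free DMSO medium blank. Compounds tested over a 3-fold dilution series spanning 20 μM to 1.02 nM; lines grown essentially as ATCC recommends.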
On the technique in general: Formazan colour is commonly taken as a measure of viable cells.

Assay [2] has as its system MV-4-11 human acute myeloid leukemia. Nature of the assay: MV-4-11 CCK-8 proliferation assay. It counts as cell-based. Conditions: Homo sapiens, MV4-11; MV-4-11 cells, 72 hr. An outline of the steps:
as §1

Assay [3] concerns the target T1, HSP90α protein (Homo sapiens, UniProt P07900).
T1 construct: purchased BPS Bioscience #50298
The assay can be described thus: HSP90α-binding FP (BODIPY) assay. Conditions: FP competition with BODIPY-labeled RNK04010. An outline of the steps: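 Fluorescence polarization measured competition with N-terminal human HSP90α, using either FITC-geldanamycin or BODIPY-labelled triazolone RNK04010 as tracer (5 nM final each). Compounds were tested in 2.5-fold dilutions from 20 μM to 5.2 nM, with incubation at 25 °C for 120 min (FITC) or 300 min (BODIPY).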

In patent publication US20240124460A1, “METHODS AND COMPOSITIONS FOR TARGETED PROTEIN DEGRADATION” (Ranok Therapeutics (Hangzhou) Co. Ltd., priority 2020, published 2024) one finds EC50 and IC50 data, which are given here for 9 molecules.

The term IC50 denotes the point on the concentration scale where inhibition reaches its midpoint. A higher IC50 goes with a need for much substance. In the case of `CCOc1cc(N2CCC(C(=O)N3CCN(C(=O)O[C@H]4CC[C@H](Nc5cc(-n6nc(C(F)(F)F)c7c6CC(C)(C)CC7=O)ccc5C(N)=O)CC4)CC3)CC2)ccc1Nc1ncc2c(n1)N(S(C)(=O)=O)c1ccccc1C(=O)N2C` [Compound 106, (1R,4R)-4-((2-carbamoyl-5-(6,6-dimethyl-4-oxo-3-(trifluoromethyl)-4,5,6,7-tetrahydro-1H-indazol-1-yl)phenyl)amino)cyclohexyl 4-(1-(3-ethoxy-4-((5-methyl-11-(methylsulfonyl)-6-oxo-6,11-dihydro-5H-benzo[e]pyrimido[5,4-b][1,4]diazepin-2-yl)amino)phenyl)piperidine-4-carbonyl)piperazine-1-carboxylate], the results for the EC50 in assay [1] and in assay [2] were more than 1000 nM and 100 to 1000 nM, respectively. Also, the IC50 in assay [3] is more than 1000 nM.

As to `CCOc1cc(N2CCC(C(=O)N3CCC(CN4CCN(Cc5ccc(-n6c(C(=O)NC(C)C(F)(F)F)nnc6-c6cc(CC)c(O)cc6O)cc5)CC4)CC3)CC2)ccc1Nc1ncc2c(n1)N(C)c1ccccc1C(=O)N2C` (stereo not drawn) [Compound 114, 4-(4-((4-((1-(1-(4-((5,11-dimethyl-6-oxo-6,11-dihydro-5H-benzo[e]pyrimido[5,4-b][1,4]diazepin-2-yl)amino)-3-ethoxyphenyl)piperidine-4-carbonyl)piperidin-4-yl)methyl)piperazin-1-yl)methyl)phenyl)-5-(5-ethyl-2,4-dihydroxyphenyl)-N-(1,1,1-trifluoropropan-2-yl)-4H-1,2,4-triazole-3-carboxamide], the EC50 in assay [1] is 100 to 1000 nM; in assay [2], less than 100 nM. Further, the 50% inhibitory concentration (IC50) in assay [3] fell in the range of 100 to 1000 nM.

Turning to `CCOc1cc(N2CCC(C(=O)NCCOCCOCCNC(=O)O[C@H]3CC[C@H](Nc4cc(-n5nc(C(F)(F)F)c6c5CC(C)(C)CC6=O)ccc4C(N)=O)CC3)CC2)ccc1Nc1ncc2c(n1)N(S(C)(=O)=O)c1ccccc1C(=O)N2C` [Compound 116, (1R,4R)-4-((2-carbamoyl-5-(6,6-dimethyl-4-oxo-3-(trifluoromethyl)-4,5,6,7-tetrahydro-1H-indazol-1-yl)phenyl)amino)cyclohexyl (2-(2-(2-(1-(3-ethoxy-4-((5-methyl-11-(methylsulfonyl)-6-oxo-6,11-dihydro-5H-benzo[e]pyrimido[5,4-b][1,4]diazepin-2-yl)amino)phenyl)piperidine-4-carboxamido)ethoxy)ethoxy)ethyl)carbamate], the EC50 in assay [1] was more than 1000 nM; in assay [2] it was 100 to 1000 nM. In addition, the IC50 in assay [3] is more than 1000 nM.

Turning to `CCOc1cc(N2CCC(C(=O)N3CCC(CN4CCN(C(=O)O[C@H]5CC[C@H](Nc6cc(-n7nc(C(F)(F)F)c8c7CC(C)(C)CC8=O)ccc6C(N)=O)CC5)CC4)CC3)CC2)ccc1Nc1ncc2c(n1)N(S(C)(=O)=O)c1ccccc1C(=O)N2C` [Compound 117, (1R,4R)-4-((2-carbamoyl-5-(6,6-dimethyl-4-oxo-3-(trifluoromethyl)-4,5,6,7-tetrahydro-1H-indazol-1-yl)phenyl)amino)cyclohexyl 4-((1-(1-(3-ethoxy-4-((5-methyl-11-(methylsulfonyl)-6-oxo-6,11-dihydro-5H-benzo[e]pyrimido[5,4-b][1,4]diazepin-2-yl)amino)phenyl)piperidine-4-carbonyl)piperidin-4-yl)methyl)piperazine-1-carboxylate], the values for the EC50 in assay [1] and in assay [2] were more than 1000 nM and 100 to 1000 nM, respectively. In addition, in assay [3], the IC50 is more than 1000 nM.

In the case of `CCOc1cc(N2CCC(C(=O)N3CCC(CN4CCN(C(=O)CNC(=O)O[C@H]5CC[C@H](Nc6cc(-n7nc(C(F)(F)F)c8c7CC(C)(C)CC8=O)ccc6C(N)=O)CC5)CC4)CC3)CC2)ccc1Nc1ncc2c(n1)N(S(C)(=O)=O)c1ccccc1C(=O)N2C` [Compound 119, (1R,4R)-4-((2-carbamoyl-5-(6,6-dimethyl-4-oxo-3-(trifluoromethyl)-4,5,6,7-tetrahydro-1H-indazol-1-yl)phenyl)amino)cyclohexyl (2-(4-((1-(1-(3-ethoxy-4-((5-methyl-11-(methylsulfonyl)-6-oxo-6,11-dihydro-5H-benzo[e]pyrimido[5,4-b][1,4]diazepin-2-yl)amino)phenyl)piperidine-4-carbonyl)piperidin-4-yl)methyl)piperazin-1-yl)-2-oxoethyl)carbamate], the EC50 in assay [1] is more than 1000 nM; in assay [2], less than 100 nM. This molecule also displayed an IC50 in assay [3] of more than 1000 nM.

In the case of `CCOc1cc(N2CCC(C(=O)NCCOCCOCCNC(=O)O[C@H]3CC[C@H](Nc4cc(-n5nc(C(F)(F)F)c6c5CC(C)(C)CC6=O)ccc4C(N)=O)CC3)CC2)ccc1Nc1ncc2c(n1)N(C)c1ccccc1C(=O)N2C` [Compound 120, (1R,4R)-4-((2-carbamoyl-5-(6,6-dimethyl-4-oxo-3-(trifluoromethyl)-4,5,6,7-tetrahydro-1H-indazol-1-yl)phenyl)amino)cyclohexyl (2-(2-(2-(1-(4-((5,11-dimethyl-6-oxo-6,11-dihydro-5H-benzo[e]pyrimido[5,4-b][1,4]diazepin-2-yl)amino)-3-ethoxyphenyl)piperidine-4-carboxamido)ethoxy)ethoxy)ethyl)carbamate], the EC50 is more than 1000 nM in assay [1] and 100 to 1000 nM in assay [2]. In assay [3], the concentration for half-maximal inhibition (IC50) was more than 1000 nM.

On to `CCOc1cc(N2CCC(C(=O)N3CCC(CN4CCN(C(=O)O[C@H]5CC[C@H](Nc6cc(-n7nc(C(F)(F)F)c8c7CC(C)(C)CC8=O)ccc6C(N)=O)CC5)CC4)CC3)CC2)ccc1Nc1ncc2c(n1)N(C)c1ccccc1C(=O)N2C` [Compound 121, (1R,4R)-4-((2-carbamoyl-5-(6,6-dimethyl-4-oxo-3-(trifluoromethyl)-4,5,6,7-tetrahydro-1H-indazol-1-yl)phenyl)amino)cyclohexyl 4-((1-(1-(4-((5,11-dimethyl-6-oxo-6,11-dihydro-5H-benzo[e]pyrimido[5,4-b][1,4]diazepin-2-yl)amino)-3-ethoxyphenyl)piperidine-4-carbonyl)piperidin-4-yl)methyl)piperazine-1-carboxylate], for which the EC50 in assay [1] and in assay [2] was more than 1000 nM each time. The IC50 in assay [3] was more than 1000 nM.

With `CCOc1cc(N2CCC(C(=O)N3CCC(CN4CCN(C(=O)CNC(=O)O[C@H]5CC[C@H](Nc6cc(-n7nc(C(F)(F)F)c8c7CC(C)(C)CC8=O)ccc6C(N)=O)CC5)CC4)CC3)CC2)ccc1Nc1ncc2c(n1)N(C)c1ccccc1C(=O)N2C` [Compound 122, (1R,4R)-4-((2-carbamoyl-5-(6,6-dimethyl-4-oxo-3-(trifluoromethyl)-4,5,6,7-tetrahydro-1H-indazol-1-yl)phenyl)amino)cyclohexyl (2-(4-((1-(1-(4-((5,11-dimethyl-6-oxo-6,11-dihydro-5H-benzo[e]pyrimido[5,4-b][1,4]diazepin-2-yl)amino)-3-ethoxyphenyl)piperidine-4-carbonyl)piperidin-4-yl)methyl)piperazin-1-yl)-2-oxoethyl)carbamate], the EC50 in assay [1] was more than 1000 nM; in assay [2], 100 to 1000 nM. In assay [3], this molecule displayed a 50% inhibitory concentration (IC50) of more than 1000 nM.

Take `CCNC(=O)c1nnc(-c2cc(CC)c(O)cc2O)n1-c1ccc(CN2CCN(CC3CCN(C(=O)C4CCN(c5ccc(Nc6ncc7c(n6)N(C)c6ccccc6C(=O)N7C)c(OCC)c5)CC4)CC3)CC2)cc1` [Compound 134, 4-(4-((4-((1-(1-(4-((5,11-dimethyl-6-oxo-6,11-dihydro-5H-benzo[e]pyrimido[5,4-b][1,4]diazepin-2-yl)amino)-3-ethoxyphenyl)piperidine-4-carbonyl)piperidin-4-yl)methyl)piperazin-1-yl)methyl)phenyl)-N-ethyl-5-(5-ethyl-2,4-dihydroxyphenyl)-4H-1,2,4-triazole-3-carboxamide]: the EC50 in assay [1] and in assay [2] was less than 100 nM throughout. This molecule also displayed an IC50 in assay [3] of less than 100 nM.
